According to US11572590B2, “Methods for evaluating tumor cell spheroids using 3D microfluidic cell culture device” (Dana-Farber Cancer Institute, Inc., priority 2017, dated 2023):
Like-named read-outs stand apart in the source and are kept apart here.

Assays:
off-target kinases [1] = target: off-target kinases (Homo sapiens, UniProt Q08345); experiment: SelectScreen Kinase Profiling, single point inhibition and IC50 for off-target kinases; format: biochemical; conditions: DDR1, LanthaScreen Binding
off-target kinases (Homo sapiens, UniProt Q08345), sequence (Q08345 19-913): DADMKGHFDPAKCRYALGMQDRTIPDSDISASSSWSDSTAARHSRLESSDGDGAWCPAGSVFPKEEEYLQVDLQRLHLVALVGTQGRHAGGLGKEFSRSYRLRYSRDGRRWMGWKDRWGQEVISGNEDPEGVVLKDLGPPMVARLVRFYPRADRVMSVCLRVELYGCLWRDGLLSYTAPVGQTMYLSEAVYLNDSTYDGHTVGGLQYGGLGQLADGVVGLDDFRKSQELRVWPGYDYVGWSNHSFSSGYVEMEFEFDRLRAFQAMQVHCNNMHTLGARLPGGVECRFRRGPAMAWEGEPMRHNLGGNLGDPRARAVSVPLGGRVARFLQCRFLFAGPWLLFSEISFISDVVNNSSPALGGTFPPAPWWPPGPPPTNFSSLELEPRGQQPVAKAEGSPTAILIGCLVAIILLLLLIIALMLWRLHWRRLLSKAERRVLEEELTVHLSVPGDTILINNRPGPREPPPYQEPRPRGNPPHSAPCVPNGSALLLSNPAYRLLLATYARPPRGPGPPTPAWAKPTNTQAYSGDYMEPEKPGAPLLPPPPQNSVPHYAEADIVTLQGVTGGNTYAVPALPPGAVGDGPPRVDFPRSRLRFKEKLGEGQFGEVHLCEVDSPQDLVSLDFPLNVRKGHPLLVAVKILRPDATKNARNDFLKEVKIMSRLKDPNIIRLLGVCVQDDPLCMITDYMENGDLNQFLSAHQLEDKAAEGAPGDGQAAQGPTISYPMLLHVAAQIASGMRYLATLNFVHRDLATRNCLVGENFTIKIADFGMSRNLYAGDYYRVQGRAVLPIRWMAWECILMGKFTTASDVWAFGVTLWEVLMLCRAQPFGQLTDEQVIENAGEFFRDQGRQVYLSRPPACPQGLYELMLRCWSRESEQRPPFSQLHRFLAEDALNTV

off-target kinases [2] = target: T1, off-target kinases (Homo sapiens, UniProt Q8IVH8); experiment: as above; format: biochemical; conditions: MAP4K3 (GLK), LanthaScreen Binding
T1 sequence (Q8IVH8 1-894): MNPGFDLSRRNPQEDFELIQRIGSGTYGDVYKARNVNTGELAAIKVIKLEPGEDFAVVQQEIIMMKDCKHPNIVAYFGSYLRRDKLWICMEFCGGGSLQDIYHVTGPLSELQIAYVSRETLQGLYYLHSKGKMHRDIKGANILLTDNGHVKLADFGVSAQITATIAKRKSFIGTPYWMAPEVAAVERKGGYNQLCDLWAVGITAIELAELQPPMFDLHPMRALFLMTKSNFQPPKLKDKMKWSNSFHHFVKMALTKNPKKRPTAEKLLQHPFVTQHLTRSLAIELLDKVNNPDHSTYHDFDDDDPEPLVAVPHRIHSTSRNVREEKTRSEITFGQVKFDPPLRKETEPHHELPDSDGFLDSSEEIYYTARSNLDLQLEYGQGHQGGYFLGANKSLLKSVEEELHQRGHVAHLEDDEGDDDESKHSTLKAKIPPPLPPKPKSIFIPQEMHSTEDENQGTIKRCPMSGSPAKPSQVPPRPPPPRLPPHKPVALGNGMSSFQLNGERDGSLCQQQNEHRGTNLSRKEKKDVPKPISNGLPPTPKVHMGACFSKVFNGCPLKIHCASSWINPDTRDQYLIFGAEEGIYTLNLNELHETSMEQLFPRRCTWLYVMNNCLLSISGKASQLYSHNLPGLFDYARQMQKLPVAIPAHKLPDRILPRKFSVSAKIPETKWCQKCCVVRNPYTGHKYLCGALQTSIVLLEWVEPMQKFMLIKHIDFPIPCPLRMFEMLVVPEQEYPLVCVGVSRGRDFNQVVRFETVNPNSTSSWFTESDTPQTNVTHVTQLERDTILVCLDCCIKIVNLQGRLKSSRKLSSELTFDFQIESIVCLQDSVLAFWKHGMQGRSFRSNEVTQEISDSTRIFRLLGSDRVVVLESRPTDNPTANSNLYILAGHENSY

## N#Cc1cc(-c2ncnc(Nc3ccc(N4CCN(C5COC5)CC4)cc3)n2)ccc1OC1CCOCC1 [Compound 1, 5-(4-((4-(4-(oxetan-3-yl)piperazin-1-yl)phenyl)amino)-1,3,5-triazin-2-yl)-2-((tetrahydro-2H-pyran-4-yl)oxy)benzonitrile]
off-target kinases [1]; read-out: % Inhibition 1
  inhibition: 3%
off-target kinases [1]; read-out: % Inhibition 2
  inhibition: 2%
off-target kinases [1]; read-out: % Inhibition Avg
  inhibition: 2%
off-target kinases [2]; read-out: % Inhibition 1
  inhibition: 16%
off-target kinases [2]; read-out: % Inhibition 2
  inhibition: 21%
off-target kinases [2]; read-out: % Inhibition Avg
  inhibition: 18%
